From PubChem BioAssay AID330 (DTP/NCI, 2004)
Where “and” joins values, the source holds several entries; their conditions need not be identical. Equal values may be shown once. Toxic doses and inconclusive results are not listed.

System: P388 leukemia ip, CD2F1 mice, survival T/C
Test: NCI In Vivo Anticancer Drug Screen. Data for tumor model P388 Leukemia (intraperitoneal) in CD2F1 (CDF1) mice
Conditions: endpoint: median survival time, higher = longer survival
In short: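 Mice carrying the transplanted tumor received test compound or vehicle. Survival was recorded in each group, and the value is the treated-group measurement divided by that of the vehicle-treated control group.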

[1] = dose: 25.0 mg/kg/injection, schedule: Q01DX005 (ip), vehicle: Klucel (hydroxypropylcellulose) (HPC)
[2] = dose: 50.0 mg/kg/injection, schedule: Q01DX005 (ip), vehicle: Klucel (hydroxypropylcellulose) (HPC)
[3] = dose: 60.0 mg/kg/injection, schedule: Q01DX005 (ip), vehicle: saline with Tween-80
[4] = dose: 120.0 mg/kg/injection, schedule: Q01DX005 (ip), vehicle: saline with Tween-80
[5] = dose: 240.0 mg/kg/injection, schedule: Q01DX005 (ip), vehicle: saline with Tween-80
[6] = dose: 100.0 mg/kg/injection, schedule: Q01DX005 (ip), vehicle: Klucel (hydroxypropylcellulose) (HPC)
[7] = dose: 200.0 mg/kg/injection, schedule: Q01DX005 (ip), vehicle: Klucel (hydroxypropylcellulose) (HPC)
[8] = dose: 50.0 mg/kg/injection, schedule: Q01DX009 (ip), vehicle: saline with Tween-80
[9] = dose: 100.0 mg/kg/injection, schedule: Q01DX009 (ip), vehicle: saline with Tween-80
[10] = dose: 100.0 mg/kg/injection, schedule: Q04DX003 (ip), vehicle: Klucel (hydroxypropylcellulose) (HPC)
[11] = dose: 200.0 mg/kg/injection, schedule: Q04DX003 (ip), vehicle: Klucel (hydroxypropylcellulose) (HPC)
[12] = dose: 400.0 mg/kg/injection, schedule: Q04DX003 (ip), vehicle: Klucel (hydroxypropylcellulose) (HPC)
[13] = dose: 50.0 mg/kg/injection, schedule: Q01DX005 (ip), vehicle: saline with Tween-80
[14] = dose: 100.0 mg/kg/injection, schedule: Q01DX005 (ip), vehicle: saline with Tween-80
[15] = dose: 200.0 mg/kg/injection, schedule: Q01DX005 (ip), vehicle: saline with Tween-80
[16] = dose: 100.0 mg/kg/injection, schedule: Q04DX002 (ip), vehicle: Klucel (hydroxypropylcellulose) (HPC)
[17] = dose: 200.0 mg/kg/injection, schedule: Q04DX002 (ip), vehicle: Klucel (hydroxypropylcellulose) (HPC)
[18] = dose: 50.0 mg/kg/injection, schedule: Q01DX009 (ip), vehicle: Klucel (hydroxypropylcellulose) (HPC)
[19] = dose: 100.0 mg/kg/injection, schedule: Q01DX009 (ip), vehicle: Klucel (hydroxypropylcellulose) (HPC)
[20] = dose: 200.0 mg/kg/injection, schedule: Q01DX009 (ip), vehicle: Klucel (hydroxypropylcellulose) (HPC)

O=C(CCCN1CCN(c2cc3ccccc3cn2)CC1)c1ccc(F)cc1
T/C (dose: 12.5 mg/kg/injection, schedule: Q01DX005 (ip), vehicle: Klucel (hydroxypropylcellulose) (HPC)): 109 % of control
T/C [1]: 109 % of control
T/C [2]: 110 % of control and 115 % of control

O=C(Nc1ccc(Cl)cc1Cl)c1ccc2c(c1)C(=O)OC2=O
T/C [3]: 98 % of control
T/C [4]: 89 % of control
T/C [5]: 86 % of control

Nc1nnc2cc(Cl)ccc2n1
T/C [1]: 98 % of control
T/C [2]: 96 % of control
T/C [6]: 98 % of control
T/C [7]: 98 % of control

COc1cc2c(cc1OC)C1Cc3ccc4cc(OC)c(OC)cc4c3CN1CC2 (stereo not drawn)
T/C (dose: 25.0 mg/kg/injection, schedule: Q01DX009 (ip), vehicle: saline with Tween-80): 90 % of control
T/C [8]: 100 % of control
T/C [9]: 95 % of control

CNC(=O)OCc1c(COC(=O)NC)c(-c2cc(F)ccc2F)n2c1CCC2
T/C (dose: 12.5 mg/kg/injection, schedule: Q01DX009 (ip), vehicle: distilled water + Tween-80): 151 % of control
T/C (dose: 25.0 mg/kg/injection, schedule: Q01DX009 (ip), vehicle: distilled water + Tween-80): 155 % of control and 156 % of control

Cc1ccc(S(=O)(=O)N/N=C/c2ccsc2)cc1
T/C [10]: 92 % of control
T/C [11]: 106 % of control
T/C [12]: 100 % of control

NCCCCC(C(=O)O)N(C(=O)OCc1ccccc1)C(=O)OCc1ccccc1 (stereo not drawn)
T/C [13]: 106 % of control
T/C [14]: 101 % of control
T/C [15]: 97 % of control

CNC1c2ccccc2CCC1O (stereo not drawn)
T/C [16]: 100 % of control
T/C [17]: 96 % of control

Cc1nc2scc(-c3ccc(Cl)cc3)n2c(=O)c1CN1CCCCC1
T/C (dose: 50.0 mg/kg/injection, schedule: Q04DX002 (ip), vehicle: Klucel (hydroxypropylcellulose) (HPC)): 97 % of control
T/C [16]: 95 % of control
T/C [17]: 97 % of control

COc1cc(NC(C)=O)c(OC)c2c(=O)cc(C(=O)O)[nH]c12
T/C (dose: 100.0 mg/kg/injection, schedule: Q01DX001 (ip), vehicle: Klucel (hydroxypropylcellulose) (HPC)): 93 % of control
T/C (dose: 200.0 mg/kg/injection, schedule: Q01DX001 (ip), vehicle: Klucel (hydroxypropylcellulose) (HPC)): 98 % of control
T/C (dose: 400.0 mg/kg/injection, schedule: Q01DX001 (ip), vehicle: Klucel (hydroxypropylcellulose) (HPC)): 99 % of control

Nc1n[nH]c2ccccc12
T/C [2]: 104 % of control and 107 % of control
T/C [6]: 105 % of control and 107 % of control
T/C [7]: 117 % of control

CCOC(=O)C1=C(C(=O)c2cccc3ccccc23)C(c2cccc([N+](=O)[O-])c2)C(C(=O)c2cccc3ccccc23)=C(C(=O)OCC)N1
T/C (dose: 15.0 mg/kg/injection, schedule: Q01DX005 (ip), vehicle: Klucel (hydroxypropylcellulose) (HPC)): 97 % of control
T/C (dose: 30.0 mg/kg/injection, schedule: Q01DX005 (ip), vehicle: Klucel (hydroxypropylcellulose) (HPC)): 97 % of control
T/C (dose: 60.0 mg/kg/injection, schedule: Q01DX005 (ip), vehicle: Klucel (hydroxypropylcellulose) (HPC)): 99 % of control

COc1ccc(OC(=O)c2ccccc2)c2c1C(=O)C=CC2=O
T/C (dose: 1.56 mg/kg/injection, schedule: Q01DX005 (ip), vehicle: saline with Tween-80): 116 % of control
T/C (dose: 3.13 mg/kg/injection, schedule: Q01DX005 (ip), vehicle: saline with Tween-80): 111 % of control
T/C (dose: 6.25 mg/kg/injection, schedule: Q01DX005 (ip), vehicle: saline with Tween-80): 111 % of control and 116 % of control

CN(CCO)C1=C(N2CC2)C(=O)C(N(C)CCO)=C(N2CC2)C1=O
T/C (dose: 0.4 mg/kg/injection, schedule: Q01DX009 (ip), vehicle: saline): 175 % of control and 194 % of control
T/C (dose: 0.8 mg/kg/injection, schedule: Q01DX009 (ip), vehicle: saline): 194 % of control and 245 % of control
T/C (dose: 1.6 mg/kg/injection, schedule: Q01DX009 (ip), vehicle: saline): 119 % of control and 262 % of control

Cc1cc(C)c(SSc2nnnn2-c2ccccc2)c(C)c1
T/C [18]: 108 % of control
T/C [19]: 103 % of control
T/C [20]: 94 % of control

COc1ccc2c(c1OC)C(=C(C#N)C#N)N1CCc3cc4c(cc3C1=C2)OCO4
T/C (dose: 0.63 mg/kg/injection, schedule: Q01DX009 (ip), vehicle: distilled water + Tween-80): 103 % of control
T/C (dose: 1.25 mg/kg/injection, schedule: Q01DX009 (ip), vehicle: distilled water + Tween-80): 94 % of control
T/C (dose: 2.5 mg/kg/injection, schedule: Q01DX009 (ip), vehicle: distilled water + Tween-80): 112 % of control
T/C (dose: 5.0 mg/kg/injection, schedule: Q01DX009 (ip), vehicle: distilled water + Tween-80): 112 % of control
T/C (dose: 10.0 mg/kg/injection, schedule: Q01DX009 (ip), vehicle: distilled water + Tween-80): 108 % of control
T/C (dose: 20.0 mg/kg/injection, schedule: Q01DX009 (ip), vehicle: distilled water + Tween-80): 121 % of control

NC(=O)c1[nH]cnc1/N=N/N(CCCl)Cc1ccccc1
T/C (dose: 44.0 mg/kg/injection, schedule: Q01DX009 (ip), vehicle: Klucel (hydroxypropylcellulose) (HPC)): 122 % of control
T/C [19]: 196 % of control
T/C (dose: 150.0 mg/kg/injection, schedule: Q01DX009 (ip), vehicle: Klucel (hydroxypropylcellulose) (HPC)): 196 % of control
T/C [11]: 182 % of control
T/C [12]: 256 % of control

COc1ccc(Cc2n[nH]c(=O)c3c(C)[nH]nc23)cc1
T/C [18]: 93 % of control
T/C [19]: 100 % of control
T/C [20]: 119 % of control

COC(=O)C(=O)c1c(C(=O)OC)nc2[nH]n(-c3ccccc3)c(=O)c2c1Cc1ccccc1
T/C [3]: 98 % of control
T/C [4]: 100 % of control
T/C [5]: 91 % of control

CCOC(=O)Cn1nc2oc(=O)c(CCN3CCN(c4ccccc4OC)CC3)c(C)c2c1C
T/C [1]: 103 % of control
T/C [2]: 100 % of control
T/C [6]: 87 % of control
T/C [7]: 109 % of control

O=C1C2CC3CC1CC(Cl)(C3)C2
T/C [13]: 112 % of control
T/C [14]: 98 % of control

CC(=O)OC1CCC2C3CCc4cc(OP(=O)(N5CC5)N5CC5)ccc4C3CCC12C (stereo not drawn)
T/C [8]: 92 % of control
T/C [9]: 114 % of control
T/C (dose: 200.0 mg/kg/injection, schedule: Q01DX009 (ip), vehicle: saline with Tween-80): 108 % of control

O=C(CSc1ccccn1)C1=S=C2C=CC=CN2C1=O
T/C [13]: 92 % of control
T/C [14]: 95 % of control
T/C [15]: 93 % of control

COc1nc(NC2OC(COC(C)=O)C(OC(C)=O)C(OC(C)=O)C2OC(C)=O)c(N=CC=Nc2c(NC3OC(COC(C)=O)C(OC(C)=O)C(OC(C)=O)C3OC(C)=O)nc(OC)[nH]c2=O)c(=O)[nH]1 (stereo not drawn)
T/C [3]: 89 % of control
T/C [4]: 90 % of control
T/C [5]: 95 % of control

COc1ccc(CSC(=S)Nc2ccc(Cl)c(C)c2)cc1
T/C (dose: 50.0 mg/kg/injection, schedule: Q01DX009 (ip), vehicle: suspension in saline): 111 % of control
T/C (dose: 100.0 mg/kg/injection, schedule: Q01DX009 (ip), vehicle: suspension in saline): 109 % of control
T/C (dose: 200.0 mg/kg/injection, schedule: Q01DX009 (ip), vehicle: suspension in saline): 106 % of control

O=CNc1cc(NC=O)ncn1
T/C (dose: 15.0 mg/kg/injection, schedule: Q01DX009 (ip), vehicle: saline with Tween-80): 99 % of control
T/C (dose: 30.0 mg/kg/injection, schedule: Q01DX009 (ip), vehicle: saline with Tween-80): 97 % of control
T/C (dose: 60.0 mg/kg/injection, schedule: Q01DX009 (ip), vehicle: saline with Tween-80): 103 % of control

CC1CC(Cc2ccccc2)C(=O)CC(C)(C)CC(=O)O1 (stereo not drawn)
T/C (dose: 50.0 mg/kg/injection, schedule: Q04DX003 (ip), vehicle: saline): 100 % of control and 103 % of control and 106 % of control

CN(C)/C=C1\C(=O)O[C@H]2CCC[C@@]12C
T/C (dose: 100.0 mg/kg/injection, schedule: Q01DX001 (ip), vehicle: saline with Tween-80): 107 % of control
T/C (dose: 200.0 mg/kg/injection, schedule: Q01DX001 (ip), vehicle: saline with Tween-80): 106 % of control

CCOc1ccc(-c2nc(-c3ccc(N(C)C(=O)C(Cl)Cl)cc3)cs2)cc1OCC
T/C [10]: 102 % of control
T/C [11]: 100 % of control
T/C [12]: 94 % of control
